Measurements reported in patent publication US11492347B2 (ENYO PHARMA, priority 2018, dated 2022).

How the values were obtained:
MMXF L-363 = experiment: Cytotoxicity, propidium iodide based monolayer assay; format: cell-based; settings: Homo sapiens, 96 h; MMXF L-363 multiple myeloma, four days of treatment, T/C=50%; read-out: Absolute IC50
Experimental: (§1) The cytotoxicity was tested for compounds of the invention on five different cell-lines, namely LXFL 1121, MAXF 401, MMXF L-636, PRXF PC-3M and UXF 1138 which are respectively lung large cell carcinoma, breast adeno carcinoma, multiple myeloma, prostate adeno carcinoma and uterine sarcoma.
(§2) A working stock solution of the test compounds was prepared in DMSO at a concentration of 33 mM or 8.25 mM, and small aliquots were stored at −20° C. On each day of an experiment, a frozen aliquot of the working stock solution was thawed and stored at room temperature prior to and during treatment.
(§3) All liquid handling steps were performed using the Tecan Freedom EVO 200 platform. First, serial 2-fold dilutions of the 33 mM DMSO working stock solution were done in DMSO. The DMSO dilutions were then diluted 1:22 into cell culture medium in an intermediate dilution plate. Finally, 10 μl taken from the intermediate dilution plate were transferred to 140 μl/well of the final assay plate. Thus, the DMSO serial dilutions were diluted 1:330 with cell culture medium, and the DMSO concentration in the assay was 0.3% v/v.
(§4) Cell lines were routinely passaged once or twice weekly and maintained in culture for up to 20 passages. Most cell lines were grown at 37° C. in a humidified atmosphere with 5% CO2 in RPMI 1640 medium (25 mM HEPES, with L-glutamine, #FG1385, Biochrom, Berlin, Germany) supplemented with 10% (v/v) fetal calf serum (Sigma, Taufkirchen, Germany) and 0.05 mg/mL gentamicin (Life Technologies, Karlsruhe, Germany).
(§5) A modified propidium iodide (PI) based monolayer assay was used to assess the anti-cancer activity of the compounds. Briefly, cells were harvested from exponential phase cultures, counted and plated in 96 well flat-bottom microtiter plates at a cell density of 4,000 to 40,000 cells/well dependent on the cell line's growth rate. The individual seeding density for each cell line ensure exponential growth conditions over the whole or at least the bigger part of the treatment period. After a 24 h recovery period, to allow the cells to resume exponential growth, 10 μl of culture medium (6 control wells/cell line/plate) or of culture medium with test compounds were added. Compounds were applied at ten concentrations in 2-fold increments in duplicates up to 25 μM or 100 μM and treatment continued for four days. After four days of treatment, cells were next washed with 200 μl PBS to remove dead cells and debris, then 200 μl of a solution containing 7 μg/ml propidium iodide (PI) and 0.1% (v/v) Triton X-100 was added. After an incubation period of 1-2 hours at room temperature, fluorescence (FU) was measured using the Enspire Multimode Plate Reader (excitation λ=530 nm, emission k=620 nm) to quantify the amount of attached viable cells.
(§6) Drug effects were expressed in terms of the percentage of the fluorescence signal, obtained by comparison of the mean signal in the treated wells with the mean signal of the untreated controls (expressed by the test-versus-control value, T/C−value [%]):
(§7) [formula] IC values reported reflect the concentration of the test compound that achieves T/C=50%. Calculation was done by 4 parameter non-linear curve fit.

NFκB = NFκB reporter assay, TNFα stimulation of A549 NFκB-NanoLuciferase reporter cells; format: cell-based; settings: Homo sapiens, 4 ng/ml TNFα, NanoGlo luciferase assay 6 hours later
Excerpt: Compounds of the present invention have been tested for their capacity to inhibit NFκB.
The NFκB reporter construct was made by cloning 5 NFκB responsive elements upstream of a NanoLuciferase reporter gene flanked by AAVS1 genomic sequences.
NFκB Responsive element fused with NanoLuciferase and SV40 late Poly(A) signal was amplified from pNL3.2-NFκB-Nluc (Promega) using NFKB-NLUC-F and NFKB-NLUC-R primers and inserted by Infusion (TaKaRa) in AAVS1 SA-2A-puro-pA donor plasmid (Hockemeyer et al, Nat Biotechnol. 2009, 27, 851-7) digested by Sal1. pCRISPR AAVS1-T2 expressing a guide RNA (gRNA) to target human AAVS1 (T2 target sequence) was constructed by inserting AAVS1-T2A hybridized primers in pLentiCRISPR v2-blast (Sanjana et al, Nat Methods. 2014, 11, 783-4) digested by Bsmbl.
A549 cells were transfected by the plasmids and puromycine selected for 5 days (1 μg mL-1). Then clones were obtained by limiting dilution and selected to maximize TNF dependent NFκB-NanoLuciferase induction.
The reporter cells were seeded on a 96-well plate for overnight with DMEM including 10% FBS. Test compounds were added at varying concentrations. The cells then were treated with 4 ng/ml TNFα (Peprotech, ref E251) in DMEM+10% FBS. NanoGlo luciferase assay (Promega) was carried out 6 hours later. Luminescence was measured using a Spark 20M spectrofluorimeter (Tecan). Values were normalized to the luminescence measured in untreated cells.

LXFL 1121 = experiment: Cytotoxicity, propidium iodide based monolayer assay; settings: 96 h; LXFL 1121 lung large cell carcinoma, four days of treatment, T/C=50%; read-out: Absolute IC50
Experimental: as §1, §2, §3
Cell lines were routinely passaged once or twice weekly and maintained in culture for up to 20 passages. […]
A modified propidium iodide (PI) based monolayer assay was used to assess the anti-cancer activity of the compounds. Briefly, cells were harvested from exponential phase cultures, counted and plated in 96 well flat-bottom microtiter plates at a cell density of 4,000 to 40,000 cells/well dependent on the cell line's growth rate. […] After an incubation period of 1-2 hours at room temperature, fluorescence (FU) was measured using the Enspire Multimode Plate Reader (excitation λ=530 nm, emission k=620 nm) to quantify the amount of attached viable cells.
Drug effects were expressed in terms of the percentage of the fluorescence signal, obtained by comparison of the mean signal in the treated wells with the mean signal of the untreated controls (expressed by the test-versus-control value, T/C−value [%]): […]

MAXF 401 = experiment: as above; format: cell-based; settings: Homo sapiens, MAXF401, 96 h; MAXF 401 breast adeno carcinoma, four days of treatment, T/C=50%; read-out: Absolute IC50
Experimental: as §1, §2, §3, §4, §5, §6, §7

PRXF PC-3M = experiment: as above; format: cell-based; settings: Homo sapiens, 96 h; PRXF PC-3M prostate adeno carcinoma, four days of treatment, T/C=50%; read-out: Absolute IC50
Experimental: as §1, §2, §3, §4, §5, §6, §7

CC1(C)Cc2c(sc(NC(=O)c3ccc(N4CCOCC4)cc3)c2C(=O)O)C(C)(C)C1 [Compound #36, 5,5,7,7-Tetramethyl-2-[(4-morpholinobenzoyl)amino]-4,6-dihydrobenzothiophene-3-carboxylic acid]
IC50 (MMXF L-363): 1.72 µM | EC50 (NFκB): 0.2 µM

CC1(C)CCc2sc(NC(=O)c3ccccc3)c(C(=O)O)c21 [Compound #37, 2-Benzamido-4,4-dimethyl-5,6-dihydrocyclopenta[b]thiophene-3-carboxylic acid]
IC50 (LXFL 1121): 24.7 µM | IC50 (MMXF L-363): 13.9 µM | IC50 (MAXF 401): 11.3 µM | IC50 (PRXF PC-3M): 9.67 µM

COC1CN(c2ccc(C(=O)Nc3sc4c(c3C(=O)O)CC(C)(C)CC4(C)C)cc2)C1 [Compound #58, 2-[[4-(3-Methoxyazetidin-1-yl)benzoyl]amino]-5,5,7,7-tetramethyl-4,6-dihydrobenzothiophene-3-carboxylic acid]
IC50 (LXFL 1121): 1.77 µM | IC50 (PRXF PC-3M): 0.888 µM
